Reference: patent publication US11802111B2, “Cyclobutyl amide monoacylglycerol lipase modulators” (Janssen Pharmaceutica NV, priority 2020, dated 2023)

Target: human MGL from HeLa cells (Homo sapiens (Human), UniProt Q99685)
Assay: MGL in vitro activity assay ([glycerol-1,3-3H]-oleoyl glycerol hydrolysis, activated carbon filtration)
Assay type: biochemical
Details: 300 nM [Glycerol-1,3-3H]-oleoyl glycerol, one hour
Summary of the method: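 Endogenous human MGL in HeLa cells/homogenates incubated 1 h with test compounds and 300 nM [glycerol-1,3-3H]-oleoyl glycerol. Released 3H-glycerol passing an activated carbon filter counted as activity; screening at 10 μM compound, top IC50 concentration set empirically.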

Chain of human MGL from HeLa cells (Q99685 whole entry): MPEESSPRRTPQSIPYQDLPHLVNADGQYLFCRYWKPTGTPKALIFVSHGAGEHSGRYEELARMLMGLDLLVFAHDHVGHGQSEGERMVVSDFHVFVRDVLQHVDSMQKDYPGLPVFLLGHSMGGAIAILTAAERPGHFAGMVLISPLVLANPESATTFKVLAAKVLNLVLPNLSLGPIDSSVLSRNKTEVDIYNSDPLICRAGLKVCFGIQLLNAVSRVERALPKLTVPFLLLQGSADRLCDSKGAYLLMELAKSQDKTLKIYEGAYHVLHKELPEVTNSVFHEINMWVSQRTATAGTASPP

Row | SMILES | IC50
1 | C[C@]1(O)C[C@@H](C(=O)N2CC3(CCC(c4cc5n(n4)CCCC5)CC3)C2)C1 [Example 395, ((1s,3s)-3-Hydroxy-3-methylcyclobutyl)(7-(4,5,6,7-tetrahydropyrazolo[1,5-a]pyridin-2-yl)-2-azaspiro[3.5]nonan-2-yl)methanone] | 354 nM
2 | C[C@]1(O)C[C@@H](C(=O)N2CC3(CCC(c4cn5c(n4)CCCC5)CC3)C2)C1 [Example 396, ((1s,3s)-3-Hydroxy-3-methylcyclobutyl)(7-(5,6,7,8-tetrahydroimidazo[1,2-a]pyridin-2-yl)-2-azaspiro[3.5]nonan-2-yl)methanone] | 7240 nM
3 | Cc1ccc(CC2CCC3(CC2)CN(C(=O)[C@H]2C[C@@](C)(O)C2)C3)cc1 [Example 397, ((1s,3s)-3-Hydroxy-3-methylcyclobutyl)(7-(4-methylbenzyl)-2-azaspiro[3.5]nonan-2-yl)methanone] | 16 nM
4 | Cc1cccc(CC2CCC3(CC2)CN(C(=O)[C@H]2C[C@@](C)(O)C2)C3)c1F [Example 398, (7-(2-Fluoro-3-methylbenzyl)-2-azaspiro[3.5]nonan-2-yl)((1s,3s)-3-hydroxy-3-methylcyclobutyl)methanone] | 18 nM
5 | Cc1cc(CC2CCC3(CC2)CN(C(=O)[C@H]2C[C@@](C)(O)C2)C3)ccc1F [Example 399, (7-(4-Fluoro-3-methylbenzyl)-2-azaspiro[3.5]nonan-2-yl)((1s,3s)-3-hydroxy-3-methylcyclobutyl)methanone] | 19 nM
6 | C[C@]1(O)C[C@@H](C(=O)N2CC3(CCC(Cn4ccc5cccnc54)CC3)C2)C1 [Example 400, (7-((1H-Pyrrolo[2,3-b]pyridin-1-yl)methyl)-2-azaspiro[3.5]nonan-2-yl)((1s,3s)-3-hydroxy-3-methylcyclobutyl)methanone] | 311 nM
7 | Cn1ccc2ccc(CC3CCC4(CC3)CN(C(=O)[C@H]3C[C@@](C)(O)C3)C4)nc21 [Example 401, ((1s,3s)-3-Hydroxy-3-methylcyclobutyl)(7-((1-methyl-1H-pyrrolo[2,3-b]pyridin-6-yl)methyl)-2-azaspiro[3.5]nonan-2-yl)methanone] | 66 nM
8 | Cn1ncc2ccc(CC3CCC4(CC3)CN(C(=O)[C@H]3C[C@@](C)(O)C3)C4)cc21 [Example 402, ((1s,3s)-3-Hydroxy-3-methylcyclobutyl)(7-((1-methyl-1H-indazol-6-yl)methyl)-2-azaspiro[3.5]nonan-2-yl)methanone] | 185 nM
9 | Cn1ncc2ccc(CC3CCC4(CC3)CN(C(=O)[C@H]3C[C@@](C)(O)C3)C4)nc21 [Example 403, ((1s,3s)-3-Hydroxy-3-methylcyclobutyl)(7-((1-methyl-1H-pyrazolo[3,4-b]pyridin-6-yl)methyl)-2-azaspiro[3.5]nonan-2-yl)methanone] | 449 nM
10 | Cc1ccc(OC2CCC3(CC2)CN(C(=O)[C@H]2C[C@@](C)(O)C2)C3)cc1 [Example 404, ((1s,3s)-3-Hydroxy-3-methylcyclobutyl)(7-(p-tolyloxy)-2-azaspiro[3.5]nonan-2-yl)methanone] | 53 nM
11 | Cc1ccc(OC2CCC3(CC2)CN(C(=O)[C@H]2C[C@@](C)(O)C2)C3)cc1C [Example 405, (7-(3,4-Dimethylphenoxy)-2-azaspiro[3.5]nonan-2-yl)((1s,3s)-3-hydroxy-3-methylcyclobutyl)methanone] | 32 nM
12 | Cc1cccc(OC2CCC3(CC2)CN(C(=O)[C@H]2C[C@@](C)(O)C2)C3)c1C [Example 406, (7-(2,3-Dimethylphenoxy)-2-azaspiro[3.5]nonan-2-yl)((1s,3s)-3-hydroxy-3-methylcyclobutyl)methanone] | 20 nM
13 | COc1cc(C)cc(OC2CCC3(CC2)CN(C(=O)[C@H]2C[C@@](C)(O)C2)C3)c1 [Example 407, ((1s,3s)-3-Hydroxy-3-methylcyclobutyl)(7-(3-methoxy-5-methylphenoxy)-2-azaspiro[3.5]nonan-2-yl)methanone] | 143 nM
14 | COc1cc(OC2CCC3(CC2)CN(C(=O)[C@H]2C[C@@](C)(O)C2)C3)ccc1C [Example 408, ((1s,3s)-3-Hydroxy-3-methylcyclobutyl)(7-(3-methoxy-4-methylphenoxy)-2-azaspiro[3.5]nonan-2-yl)methanone] | 33 nM
15 | COc1cccc(OC2CCC3(CC2)CN(C(=O)[C@H]2C[C@@](C)(O)C2)C3)c1C [Example 409, ((1s,3s)-3-Hydroxy-3-methylcyclobutyl)(7-(3-methoxy-2-methylphenoxy)-2-azaspiro[3.5]nonan-2-yl)methanone] | 42 nM
16 | Cc1ccc(Cl)c(OC2CCC3(CC2)CN(C(=O)[C@H]2C[C@@](C)(O)C2)C3)c1 [Example 410, (7-(2-Chloro-5-methylphenoxy)-2-azaspiro[3.5]nonan-2-yl)((1s,3s)-3-hydroxy-3-methylcyclobutyl)methanone] | 2.8 nM
17 | Cc1ccc(OC2CCC3(CC2)CN(C(=O)[C@H]2C[C@@](C)(O)C2)C3)cc1Cl [Example 411, (7-(3-Chloro-4-methylphenoxy)-2-azaspiro[3.5]nonan-2-yl)((1s,3s)-3-hydroxy-3-methylcyclobutyl)methanone] | 9.1 nM

Row | SMILES | IC50
18 | Cc1cc(Cl)ccc1OC1CCC2(CC1)CN(C(=O)[C@H]1C[C@@](C)(O)C1)C2 [Example 412, (7-(4-Chloro-2-methylphenoxy)-2-azaspiro[3.5]nonan-2-yl)((1s,3s)-3-hydroxy-3-methylcyclobutyl)methanone] | 1.4 nM
19 | Cc1c(Cl)cccc1OC1CCC2(CC1)CN(C(=O)[C@H]1C[C@@](C)(O)C1)C2 [Example 413, (7-(3-Chloro-2-methylphenoxy)-2-azaspiro[3.5]nonan-2-yl)((1s,3s)-3-hydroxy-3-methylcyclobutyl)methanone] | 22 nM
20 | COc1cc(OC2CCC3(CC2)CN(C(=O)[C@H]2C[C@@](C)(O)C2)C3)ccc1Cl [Example 414, (7-(4-Chloro-3-methoxyphenoxy)-2-azaspiro[3.5]nonan-2-yl)((1s,3s)-3-hydroxy-3-methylcyclobutyl)methanone] | 15 nM
21 | C[C@]1(O)C[C@@H](C(=O)N2CC3(CCC(Oc4ccc(C5CC5)c(F)c4)CC3)C2)C1 [Example 415, (7-(4-Cyclopropyl-3-fluorophenoxy)-2-azaspiro[3.5]nonan-2-yl)((1s,3s)-3-hydroxy-3-methylcyclobutyl)methanone] | 3.3 nM
22 | Cc1ccc(C(F)(F)F)cc1OC1CCC2(CC1)CN(C(=O)[C@H]1C[C@@](C)(O)C1)C2 [Example 416, ((1s,3s)-3-Hydroxy-3-methylcyclobutyl)(7-(2-methyl-5-(trifluoromethyl)phenoxy)-2-azaspiro[3.5]nonan-2-yl)methanone] | 1.9 nM
23 | C[C@]1(O)C[C@@H](C(=O)N2CC3(CCC(Oc4ccc(C(F)(F)F)cn4)CC3)C2)C1 [Example 417, ((1s,3s)-3-Hydroxy-3-methylcyclobutyl)(7-((5-(trifluoromethyl)pyridin-2-yl)oxy)-2-azaspiro[3.5]nonan-2-yl)methanone] | 29 nM
24 | C[C@]1(O)C[C@@H](C(=O)N2CC3(CCC(Oc4cc(C(F)(F)F)ccn4)CC3)C2)C1 [Example 418, ((1s,3s)-3-Hydroxy-3-methylcyclobutyl)(7-((4-(trifluoromethyl)pyridin-2-yl)oxy)-2-azaspiro[3.5]nonan-2-yl)methanone] | 180 nM
25 | CC1(Oc2ccc(C(F)(F)F)cn2)CCC2(CC1)CN(C(=O)[C@H]1C[C@@](C)(O)C1)C2 [Example 419, ((1s,3s)-3-Hydroxy-3-methylcyclobutyl)(7-methyl-7-((5-(trifluoromethyl)pyridin-2-yl)oxy)-2-azaspiro[3.5]nonan-2-yl)methanone] | 12 nM
26 | CCC1(Oc2ccc(C(F)(F)F)cn2)CCC2(CC1)CN(C(=O)[C@H]1C[C@@](C)(O)C1)C2 [Example 420, (7-Ethyl-7-((5-(trifluoromethyl)pyridin-2-yl)oxy)-2-azaspiro[3.5]nonan-2-yl)((1s,3s)-3-hydroxy-3-methylcyclobutyl)methanone] | 33 nM
27 | C[C@]1(O)C[C@@H](C(=O)N2CC3(CCC(Oc4cccc(C(F)(F)F)n4)CC3)C2)C1 [Example 421, ((1s,3s)-3-Hydroxy-3-methylcyclobutyl)(7-((6-(trifluoromethyl)pyridin-2-yl)oxy)-2-azaspiro[3.5]nonan-2-yl)methanone] | 84 nM
28 | CC(F)(F)c1ccc(OC2CCC3(CC2)CN(C(=O)[C@H]2C[C@@](C)(O)C2)C3)nc1 [Example 422, (7-((5-(1,1-Difluoroethyl)pyridin-2-yl)oxy)-2-azaspiro[3.5]nonan-2-yl)((1s,3s)-3-hydroxy-3-methylcyclobutyl)methanone] | 24 nM
29 | C[C@]1(O)C[C@@H](C(=O)N2CC3(CCC(Oc4ccc(C(F)F)cn4)CC3)C2)C1 [Example 423, (7-((5-(Difluoromethyl)pyridin-2-yl)oxy)-2-azaspiro[3.5]nonan-2-yl)((1s,3s)-3-hydroxy-3-methylcyclobutyl)methanone] | 188 nM
30 | C[C@]1(O)C[C@@H](C(=O)N2CC3(CCC(Oc4ccc(C(F)(F)F)nc4)CC3)C2)C1 [Example 424, ((1s,3s)-3-Hydroxy-3-methylcyclobutyl)(7-((6-(trifluoromethyl)pyridin-3-yl)oxy)-2-azaspiro[3.5]nonan-2-yl)methanone] | 99 nM
31 | CC(C)(C)c1cccc(OC2CCC3(CC2)CN(C(=O)[C@H]2C[C@@](C)(O)C2)C3)n1 [Example 425, (7-((6-(tert-Butyl)pyridin-2-yl)oxy)-2-azaspiro[3.5]nonan-2-yl)((1s,3s)-3-hydroxy-3-methylcyclobutyl)methanone] | 7.8 nM
32 | C[C@]1(O)C[C@@H](C(=O)N2CC3(CCC(Oc4ccc(C5CC5)cn4)CC3)C2)C1 [Example 426, (7-((5-Cyclopropylpyridin-2-yl)oxy)-2-azaspiro[3.5]nonan-2-yl)((1s,3s)-3-hydroxy-3-methylcyclobutyl)methanone] | 20 nM
33 | C[C@]1(O)C[C@@H](C(=O)N2CC3(CCC(Oc4ccc(OC(F)(F)F)cn4)CC3)C2)C1 [Example 427, ((1s,3s)-3-Hydroxy-3-methylcyclobutyl)(7-((5-(trifluoromethoxy)pyridin-2-yl)oxy)-2-azaspiro[3.5]nonan-2-yl)methanone] | 28 nM
